We go through 3 molecules from patent EP4800013A1, “PARG INHIBITOR” (Shanghai Qilu Pharmaceutical Research and Development …, priority 2023, dated 2025).

One data set deals with KURAMOCHI cells. Put plainly: Inhibition of proliferation of KURAMOCHI cells (CellTiter-Glo, intracellular ATP). The class given is cell-based. The note with it: 168 h, incubated for 7 days, read-out: IC50 against KURAMOCHI cells. The procedure, abridged: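 KURAMOCHI cells seeded at 4000/well, incubated overnight, then treated with 9-point 1:4 compound series from 10 µM (0.5% DMSO) for 7 days at 37°C, 5% CO2. Viability read by CellTiter-Glo luminescence; inhibition normalised to medium-only (100%) and DMSO (0%) controls, IC50 from variable-slope four-parameter fit.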
Background: ATP-based viability assays read luminescence as a measure of living cells.

Data set [1] in a line: Pharmacokinetic evaluation in CD-1 mice (IV and PO). The class given is in vivo. The note with it: male, mouse, plasma; for Vd: read-out: Vss. As to the method:
Using mice as test animals, the compounds of the present disclosure were administered via intravenous bolus and oral injection. Plasma samples were collected at specific time points. Compound concentrations in plasma were determined by LC-MS/MS, and PK parameters were calculated to characterize the pharmacokinetic behavior of the compounds of the present disclosure in plasma.
CD-1 mice, male, supplied by Zhejiang Vital River Laboratory Animal Technology Co., Ltd.
Dosing regimen for CD-1 mice: Both the IV (intravenous) and PO (oral) experimental groups consisted of 3 mice. The IV group was administered at a dose of 1 mg/kg and a volume of 5 mL/kg. The PO group was administered at a dose of 30 mg/kg and a volume of 10 mL/kg. The dosing vehicle was 5% (v/v) DMSO/10% (v/v) Solutol/85% (v/v) saline.
Following administration, 0.025 mL of blood was collected via venipuncture at the following time points: 0.0833 (IV), 0.25, 0.5, 1, 2, 4, 8, and 24 hours. Blood samples were collected into EDTA-K2 tubes and centrifuged at 4°C and 2000 g for 10 minutes to separate plasma, which was stored at -80°C.
Mouse plasma processing: • 1) 15 µL of plasma was mixed with 200 µL of acetonitrile for protein precipitation. The mixture was vortexed and centrifuged for 15 minutes. • 2) The supernatant after processing was diluted with water and analyzed by LC/MS/MS to determine the concentration of the test compound.
Pharmacokinetic parameters were calculated using WinNonlin 6.1. Specifically, Cmax represents maximum plasma concentration, CL represents clearance, Vss represents volume of distribution at steady state, T1/2 represents terminal elimination half-life, MRTInf represents mean residence time, AUC represents area under the plasma concentration-time curve, and F represents bioavailability. Table 18: Pharmacokinetic parameters of the compounds of the present disclosure in CD-1 mice

As a reminder, the IC50 is the concentration needed to halve the response being measured. As a reminder, the AUC is concentration integrated over time. For orientation: MRT inf means a mean duration of stay, worked out from the concentration-time curve. In general, half-life refers to the time in which the quantity being followed falls by half. Low values mean rapid decline, high ones slow decline. The term Cmax denotes the maximum level reached in the sampled fluid or tissue. Consider `CCc1nc2n(-c3nnc(C(F)F)s3)c3cc(S(=O)(=O)NC4(C)CC4)cc(N4C[C@H](C)N[C@@H](C)C4)c3n2n1` [Compound 065R], for which the IC50 in the data set on KURAMOCHI cells turned out to be 2 nM. In data set [1] (IV, 1 mg/kg), the AUC came to 0.555 µM·h, the MRT inf was 2.3 h, the clearance was determined as 50 mL/min/kg and the half-life was 132 min. The Vd in data set [1] (IV, 1 mg/kg) is 6.8 L/kg. Besides, in data set [1] (PO, 30 mg/kg), the AUC amounted to 11.2 µM·h, the Cmax was 1610 nM, the mean residence time MRT inf was 4.6 h and the half-life is 144 min.

Consider `C[C@H]1CN(c2cc(S(=O)(=O)NC3(C)CC3)cc3c2n2nc(C(F)F)nc2n3-c2nnc(C(F)F)s2)C[C@H](C)N1` [Compound 065S], for which the IC50 with KURAMOCHI cells came out at 2 nM.

Take `C[C@H]1CN(c2cc(S(=O)(=O)NC3(C)CC3)cc3c2n2nc(C(F)(F)F)nc2n3-c2nnc(C(F)F)s2)C[C@H](C)N1` [Compound 065W]: the IC50 with KURAMOCHI cells is 4 nM. In data set [1] (IV, 1 mg/kg), this molecule gave an AUC of 1.26 µM·h, an MRT inf of 5.6 h, a clearance of 22 mL/min/kg and a half-life of 312 min. In addition, the Vd in data set [1] (IV, 1 mg/kg) was determined as 7.2 L/kg. In data set [1] (PO, 30 mg/kg), this molecule gave an AUC of 18.3 µM·h, a Cmax of 1980 nM, an MRT inf of 5.7 h and a half-life of 198 min.
